From patent publication EP0612845A2 (priority 1993, dated 1994)
Like-named read-outs stand apart in the source and are kept apart here.

Legend:
[1] = molecular target: T1, m-opiate receptor (mOR) cDNA RC8-1 expressed in COS cells (Rattus norvegicus, UniProt P33535); assay type: binding
T1 construct: expressed in transfected cells; host or cells: COS cells, transient electroporation with pcDNA1RC8-1; membranes

[2] = molecular target: rat brain opioid receptor; test: Competition with [125I]b-endorphin for binding to rat brain membranes (analytical microtiter plate assay)
Method: Whole male rat brains frozen in liquid N₂ are purchased from Pel-Freez (Rogers, AR). All procedures for membrane preparation are carried out at a temperature of 2-6 °C. The brains are homogenized in a Waring blender in a buffer containing 1 mM Na-bicarbonate (pH 7.2), 1 mM EDTA, 1 mM EGTA (all chemicals from Sigma Chemical, St. Louis, MO) and 0.7% (vol./vol.) of the 100X 4Pase protease inhibitor mixture (see "Protease Inhibitors" below). The ratio of tissue/homogenization medium is from 25-35 gm of brain/500 ml. The blender is controlled through a variable output rheostat (Staco Energy Products, Dayton, OH; type 3PN1010) at a setting of 40. The homogenate is centrifuged for 10 minutes at 1,000 x g pellet is rehomeginized in 500 ml of homogenization medium and recentrifuged for 10 minutes at 1,000 x g. The 1,000 x g pellet is discarded. The 1,000 x g supernatants are combined and centrifuged for 30 minutes at 20,000 x g. The 20,000 x g membrane pellet is washed by being resuspended with a Dounce homogenizer in 500 ml of homogenization medium supplemented with 10 mM EDTA (pH readjusted to 7.4) and then washed twice by being resuspended in 25 mM Tris buffer (Sigma Chemical Co.; pH 7.4) and centrifuged for 25 minutes at 20,000 x g. The final membrane pellet is resuspended in 25 mM inhibitor mixture to a protein concentration of 4-12 mg/ml. The resuspended membranes are aliquoted, frozen on dry ice and stored at -90 °C.
Binding of [¹²⁵I]-labelled b-endorphin, b-endorphin and other b-endorphin analogs and opioids is done in a binding buffer containing 50 mM HEPES (Sigma; pH 7.4; pHed with KOH), 0.1% (w/v) bovine serum albumin (Miles Laboratories, Elkhart, IN) and protease inhibitors as specified below for specific applications. All binding incubations are carried out at room temperature (20-23 °C). • A. Analytical - This assay is carried out in 96 well microtiter plates (Immulon II with snap-off wells; Dynatech, Chantille, VA). To carry out the assay, the following components are added to the wells in the order and volumes shown: (1) […] of nonlabelled ligand. For this purpose, ligands (for example b-endorphin or biotinylated b-endorphin) are made up at 40X the desired final concentration in the 40X P/B/Pz protease inhibitor mixture (Experimental Procedures. 4.C.) (2) […] of [¹²⁵I]b-endorphin in binding buffer + 1/100 volume of the 100X 4Pase protease inhibitor mixture; mix briefly on a microtiter plate shaker (Dynatech Micro-Shaker II, Dynatech, Chantilly, VA). (3) […] of rat brain membrane diluted in binding buffer + […] volume of 100X 4Pase to deliver […] of membrane protein per well. The plates are then covered with Linbro Mylar plate sealers (Flow Labs, McLean, VA) and incubated for 1 hour at room temperature (20-23 °C). The membranes are pelleted by centrifugation at 2,000 x g, the supernatants (containing nonbound ligands) are decanted and the pellets are washed by the addition of […] of ice cold binding buffer, brief shaking and recentrifugation. CPM of [¹²⁵I] in the final membrane pellets is then counted in a gamma counter (LKB Gammamaster 1277; 80% efficiency). • B. Preparative - Rat brain membranes are diluted to a concentration of 0.5 mg of membrane protein/ml in binding buffer containing 1/400 (vol./vol.) of the 400X P/B/Bz protease inhibitor mixture (see Section 4). […] In this case, the blocking ligand is added from 5-15 minutes prior to the addition of biotinyl-b-endorphin. In some cases only the blocking ligand is added. […]

[3] = molecular target: T1, m-opiate receptor (mOR) cDNA RC8-1 expressed in COS cells; assay type: binding; remark: listed apart in the source
[4] = test system: [¹²⁵I]b-Endorphin: Opioid Receptor Complex; test: Dissociation of the solubilized R:L complex, measured by binding to WGA-agarose; assay type: biochemical, rat
[5] = competition with [¹²⁵I]b-endorphin, rat brain membranes, read-out: IC₅₀s for reduction of radioligand binding by competition with cold ligand
[6] = reanalysis, F1 fraction heated at 50°C for 5 min, read-out: IC50 for binding to receptors in rat brain membranes by competition vs. [¹²⁵I]b-endorphin (reanalysis)

T1 sequence (P33535 whole entry): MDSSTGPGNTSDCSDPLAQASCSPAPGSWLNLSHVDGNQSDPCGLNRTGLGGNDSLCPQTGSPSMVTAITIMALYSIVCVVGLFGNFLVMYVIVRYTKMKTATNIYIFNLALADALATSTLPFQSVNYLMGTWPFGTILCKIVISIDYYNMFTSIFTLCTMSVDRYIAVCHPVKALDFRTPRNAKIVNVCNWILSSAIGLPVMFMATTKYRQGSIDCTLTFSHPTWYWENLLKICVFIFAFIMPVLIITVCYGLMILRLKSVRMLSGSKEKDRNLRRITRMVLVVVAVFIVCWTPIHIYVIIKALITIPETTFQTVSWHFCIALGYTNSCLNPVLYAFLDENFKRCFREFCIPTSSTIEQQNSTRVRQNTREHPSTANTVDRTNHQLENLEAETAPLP

## CCC12CCN(CC3(O)CC3)C(Cc3ccc(O)cc31)C2(C)C (centres unmarked) [bromazocino]
[1]
  potency in displacing binding of [³H]DAMGO: high potency

## CN1CC[C@]23c4c5ccc(O)c4O[C@H]2[C@@H](O)C=C[C@H]3[C@H]1C5 [Morphine]
[1]
  potency in displacing binding of [³H]DAMGO: high potency

## CN1CC[C@]23CCCC[C@H]2[C@H]1Cc1ccc(O)cc13 [levorphan]
[1]
  potency in displacing [³H]DAMGO binding relative to the pharmacologically inactive isomer: substantially greater potency

## b-endorphin
[2]; [5]
  IC50: 1 nM
[2]; [6]
  IC50: 1.2 nM

## Nc1nc2c(ncn2[C@@H]2O[C@H](COP(=O)(O)OP(=O)(O)OP(=O)(O)O)[C@@H](O)[C@H]2O)c(=O)[nH]1 [GTP]
[3]
  effect of addition to incubations on [³H]DAMGO binding: reduced

## NaCl
[3]
  effect of addition to incubations on [³H]DAMGO binding: reduced

## [biotinyl-Lys³²]b-endorphin [biotinyl-b-endorphin (F2)]
[2]; [5]
  IC50: 5 nM

## ethylketocyclazocino
[1]
  potency in displacing binding of [³H]DAMGO: high potency

## [biotinyl-Lys³²]b-endorphin [biotinyl-b-endorphin (F1)]
[2]; [5]
  IC50: 1 nM

## [biotinyl-Lys³²]b-endorphin [biotinyl-b-endorphin]
[2]; [6]
  IC50: 1.8 nM

## Nc1nc2c(ncn2[C@@H]2O[C@H](COP(=O)(O)OP(=O)(O)OP(O)(O)=S)[C@@H](O)[C@H]2O)c(=O)[nH]1 [GTP-g-S]
[4]; GTP analog alone, without NaCl
  dissociation of receptor from ligand: about 30%
[4]; Table 1, 100 mM GTP-g-S, 10 minutes at room temperature
  % Decrease in R:L Complex: 34%
[4]; Table 2, 100 mM GTP-g-S + 25 mM NaCl
  % Decrease in R:L Complex: 77%
[4]; Table 2, 100 mM GTP-g-S + 50 mM NaCl
  % Decrease in R:L Complex: 90%
[4]; Table 2, 100 mM GTP-g-S + 100 mM NaCl
  % Decrease in R:L Complex: 93%
[4]; Table 2, 100 mM GTP-g-S alone
  % Decrease in R:L Complex: 24%
